# According to paper PMC6679423 (International Journal of Molecular Sciences, 2019):
# Key:
# CYP3A4 = conditions: cited from earlier work
# [1] = biological target: CYP enzymes in human liver microsomes (Homo sapiens, UniProt P08684); assay: Effects of inhibitors on N-desmethylvandetanib formation in human liver microsomes; conditions: inhibitor 50 μM equimolar to vandetanib (50 μM), 0.1 nmol microsomal CYP
# Procedure: After the incubations, 5 µL of 1 mM phenacetine (dissolved in methanol) was added as internal standard. The reaction was stopped by extraction with dichlormethane (2 × 1 mL).
# Inhibition studies in human liver microsomes were essentially conducted as reported previously.
# human recombinant CYP1A1 = biological target: T1, human recombinant CYP1A1 (Homo sapiens, UniProt P04798); assay: Vandetanib oxidation by human recombinant CYP1A1 (Supersomes); assay type: in vitro ADME
# T1 construct: purchased Gentest Corp; host or cells: insect cells (baculovirus)
# T1 sequence (P04798 1-512): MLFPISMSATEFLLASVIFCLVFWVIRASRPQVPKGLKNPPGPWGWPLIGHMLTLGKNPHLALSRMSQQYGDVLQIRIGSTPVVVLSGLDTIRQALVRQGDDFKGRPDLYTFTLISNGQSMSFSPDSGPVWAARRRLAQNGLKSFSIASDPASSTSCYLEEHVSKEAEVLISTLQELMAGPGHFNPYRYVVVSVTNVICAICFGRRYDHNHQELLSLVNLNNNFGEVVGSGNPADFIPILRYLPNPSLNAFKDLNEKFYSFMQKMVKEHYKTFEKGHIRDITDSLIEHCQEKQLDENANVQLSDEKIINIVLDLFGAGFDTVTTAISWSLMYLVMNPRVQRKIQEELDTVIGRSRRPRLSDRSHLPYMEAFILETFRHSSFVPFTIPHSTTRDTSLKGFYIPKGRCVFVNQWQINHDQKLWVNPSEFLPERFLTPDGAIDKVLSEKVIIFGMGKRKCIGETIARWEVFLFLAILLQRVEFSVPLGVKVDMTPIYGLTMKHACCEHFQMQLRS
# Procedure: Vandetanib was from LC Laboratories (Woburn, MA, USA). Ketoconazole, NADPH, methimazol and other chemicals were all purchased from Sigma-Aldrich (St. Louis, MO, USA). The purity of all chemicals met the standards of American Chemical Society, unless noted otherwise. All animal experiments were conducted in accordance with the Regulations for the Care and Use of Laboratory Animals (311/1997, Ministry of Agriculture, Czech Republic), which follows the Declaration of Helsinki. Male Wistar rats (~125–150 g; AnLab, Czech Republic), male C57BL/6 mice ([…]; CXR Bioscience Ltd., Dundee, UK), and male New Zealand rabbits (2.5–3 kg; AnLab, Czech Republic) were employed as animal models. Animals were placed in cages in temperature- and humidity-controlled rooms, acclimatized for five days and maintained at 22 °C with a 12 h light/dark period. Standardized diet and water were provided ad libitum. Rats, mice and rabbits used to prepare microsomal fraction from untreated animals were sacrificed by cervical dislocation, livers snap-frozen in liquid nitrogen and stored at −80 °C until further processing (see below). For controls, livers of the animals were removed immediately after sacrifice, divided into small pieces (~1 g), snap-frozen in liquid nitrogen, and stored at −80 °C until isolation of microsomal fractions. Pooled microsomes were used for all in vitro experiments in the present study and prepared from 10 livers/group for all animal species following established protocols. Microsomal fractions were stored at −80 °C until analysis. Protein concentrations in the microsomal fractions were assessed using the bicinchoninic acid protein assay with bovine serum albumin as a standard. Male human hepatic microsomes (pooled sample) (sample LOT: 3043885) were from Gentest Corp. (Woburn, MA, USA). Microsomes from livers of twelve human donors were obtained from Gentest Corp. (Woburn, MA, USA) (cat. no. HG43–1, HG103, HG74, HG93, HG24, HG27, HG23, HG32, HK31, HK34, HG03, and HG42). Each human microsomal sample has been characterized for CYP, FMO and protein contents and specific CYP activities by Gentest Corp. We reanalyzed each microsomal preparation for specific CYP, NADPH:CYP reductase (POR) and FMO activities by assays described in the protocols of Gentest Corp. Our data were similar to those reported by Gentest Corp. in their specification sheets. […]
# CYP enzymes in human liver microsomes, sequence (P08684 2-503): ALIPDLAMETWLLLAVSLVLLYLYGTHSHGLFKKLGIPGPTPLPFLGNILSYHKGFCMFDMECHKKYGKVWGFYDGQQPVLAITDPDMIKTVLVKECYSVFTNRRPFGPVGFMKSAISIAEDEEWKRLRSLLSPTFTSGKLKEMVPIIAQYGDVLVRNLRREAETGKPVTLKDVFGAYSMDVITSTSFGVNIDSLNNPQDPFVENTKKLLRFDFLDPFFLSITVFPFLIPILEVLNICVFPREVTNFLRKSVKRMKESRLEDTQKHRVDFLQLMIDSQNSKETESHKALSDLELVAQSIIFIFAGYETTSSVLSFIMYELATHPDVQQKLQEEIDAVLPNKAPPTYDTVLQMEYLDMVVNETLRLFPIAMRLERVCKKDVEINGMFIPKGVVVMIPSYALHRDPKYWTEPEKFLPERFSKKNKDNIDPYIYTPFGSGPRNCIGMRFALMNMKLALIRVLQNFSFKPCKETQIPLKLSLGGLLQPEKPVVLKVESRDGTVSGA
# CYP enzymes in human liver microsomes, sequence (P16435 2-677, further chain): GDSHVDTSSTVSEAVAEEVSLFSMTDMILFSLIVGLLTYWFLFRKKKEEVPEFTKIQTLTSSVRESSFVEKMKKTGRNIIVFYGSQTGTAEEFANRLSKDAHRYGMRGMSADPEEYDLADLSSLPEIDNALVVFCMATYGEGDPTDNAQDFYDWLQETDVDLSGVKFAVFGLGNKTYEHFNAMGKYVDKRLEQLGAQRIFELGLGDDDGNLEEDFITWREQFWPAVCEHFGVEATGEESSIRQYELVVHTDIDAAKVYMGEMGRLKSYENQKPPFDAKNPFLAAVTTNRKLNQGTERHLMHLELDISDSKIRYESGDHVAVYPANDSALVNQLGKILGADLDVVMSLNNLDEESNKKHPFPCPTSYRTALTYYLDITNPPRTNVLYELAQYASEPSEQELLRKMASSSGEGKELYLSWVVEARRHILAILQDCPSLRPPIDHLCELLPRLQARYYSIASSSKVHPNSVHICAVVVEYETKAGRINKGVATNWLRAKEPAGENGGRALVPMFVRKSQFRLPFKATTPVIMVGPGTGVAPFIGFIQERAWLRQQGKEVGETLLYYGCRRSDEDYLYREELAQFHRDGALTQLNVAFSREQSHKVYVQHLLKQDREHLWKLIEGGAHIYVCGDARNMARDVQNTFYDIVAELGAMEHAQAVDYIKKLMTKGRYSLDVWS
smiles,measurement,setting,value
CCC(C)n1ncn(-c2ccc(N3CCN(c4ccc(OCC5COC(Cn6cncn6)(c6ccc(Cl)cc6Cl)O5)cc4)CC3)cc2)c1=O (centres unmarked) [itraconazol],inhibition of the formation of N-desmethylvandetanib after vandetanib treatment,CYP3A4,almost ineffective
"C1C2CC3C4CC5CC(C14)C(C2)C3C5 [Diamantane, diamantane]","% of Inhibition, N-Desmethyvandetanib Formation",[1],0%
same,"% of Inhibition, N-Desmethyvandetanib Formation",[1]; listed as diamantane,no inhibitory effects
"COc1cc2c(Nc3ccc(Br)cc3F)ncnc2cc1OCC1CCN(C)CC1 [vandetanib, N-(4-bromo-2-fluorophenyl)-6-methoxy-7-[(1-methylpiperidin-4-yl)-methoxy]-quinazolin-4-amine, reference compound]","VMax, maximal velocity of N-desmethylvandetanib formation","human recombinant CYP1A1; CYP1A1, hyperbolic kinetics",0.76 ± 0.02 peak area/min/nmol CYP
same,"K0.5, substrate concentration corresponding to half-maximal velocity","human recombinant CYP1A1; CYP1A1, oxidation to N-desmethylvandetanib",35.12 ± 2.75 µM
